Five compounds from patent US12527764B2, “Methods and compositions for treating androgen receptor deficient, androgen receptor low, and castration-resistant prostate cancers” (FRED HUTCHINSON CANCER CENTER, priority 2019, dated 2026) can be followed below.

Data set [1] has as its system primary castrate (DHT−) Pten^L/L cells. The data set can be described thus: IncuCyte in vitro proliferation assay, primary castrate Pten^L/L cells. The format is cell-based, mouse. The following applies: 48 hours, same drug concentrations as in intact cells. How it is done:
(§1) Human APIPC cell lines were provided by P.S.N., and grown as previously described (11). PC3-4EBP1^M, VCaP, 22Rv1, C4-2, and LNCaP cells were cultured in RPMI-1640 with 10% FBS or phenol-red free RPMI with 10% charcoal stripped FBS (Gemini). Intact/castrate […] mouse prostates were harvested at 16 weeks of age, micro-dissected, and minced using a scalpel. Tissue chunks were incubated in 5 mg/ml collagenase II (Gibco) in Dulbecco's modified Eagle's medium for 1 hour at 37° C., followed by 5 min further digestion with TrypLE (Thermo Fisher). The dissociated cells were passed through a 40 µm nylon mesh (Falcon) to obtain single cells. Twenty thousand cells were embedded in 50 μl of Matrigel (Corning) and plated on 24-well ultra-low attachment plates (Corning). Medium components include the following: Advanced Dulbecco's Modified Eagle Medium containing B-27 supplement (Gibco), 1.25 mM N-Acetyl-L-cysteine (Sigma), 50 ng/ml EGF (Peprotech), 200 nM A83-01 (Tocris Bioscience), 500 ng/ml R-spondin1 (conditioned medium and R-spondin1 expressing plasmid provided by Y.C.), 10 μM Y-27632 (Sigma), and 100 ng/ml Noggin (Peprotech). […] Established organoids were passaged as 3D organoids or cultured as 2D cells. […] Cell proliferation was monitored by analyzing the occupied area (% confluence) of cell images over time. […]

Data set [2] addresses T1, eIF4E-eIF4G interaction (eIF4F complex) (Mus musculus, UniProt P63073).
T1 construct: Pten^L/L intact and castrate cells were treated with 50 μM 4E2RCat (MedChemExpress) and 20 μM 4EGI-1 (Selleckchem) for 24 hours; endogenous in cells; host or cells: primary intact and castrate Pten L/L mouse prostate cancer cells
The data set can be described thus: eIF4E-eIF4G proximity ligation assay in intact and castrate Pten^L/L cells. It is filed as cell-based. Particulars: 50 μM, 24 hours. How it is done: (§2) The in-situ proximity ligation assay (PLA) was optimized to detect eIF4E-eIF4G or eIF4E-4EBP1 interactions in intact/castrate Pten^L/L and castrate Pten^L;4ebp1^M FFPE tissue sections and adherent cells. FFPE sections were deparaffinized, rehydrated, and subjected to antigen retrieval in a decloaking chamber at 95° C. for 30 min in Tris-based antigen unmasking solution, pH 9 (Vector). After 30 min blocking, primary antibody incubation was performed at 4° C. overnight: eIF4E (SCBT), eIF4G (CST), and 4EBP1 (CST).
(§3) Adherent cells were grown on coverslips placed in 6-well plates until 60-70% confluent. […] Permeabilized cells were washed using 1× wash buffer followed by 1 hour blocking in a humidity chamber at 37° C. Next, cells were incubated with primary antibodies: eIF4G (CST) and eIF4E (BD Biosciences) for 2 hours at room temperature.
(§4) After incubation with primary antibody, both FFPE tissues and adherent cells were subjected to incubation with secondary antibodies conjugated to oligonucleotides (PLA plus/minus probes) for 1 hour at 37° C. The two hybridized oligonucleotides were joined in a closed circle using a ligase at 37° C. for 30 min. The DNA was then amplified with rolling circle amplification, and detection of the amplicons was carried out using the Brightfield detection kit (Sigma).

The target in data set [3] is eIF4E-eIF4G interaction (eIF4F complex) (Homo sapiens, UniProt P06730). The data set can be described thus: eIF4E-eIF4G proximity ligation assay in AR+ parental and AR− APIPC cells. Particulars: 10 μM, 24 hours. It is filed as cell-based. As for the experimental part:
as §2, §3, §4

Data set [4] has as its system AR− APIPC prostate cancer cells. In words: IncuCyte in vitro proliferation assay, AR+ parental versus AR− APIPC prostate cancer cells. Particulars: AR-null APIPC cells compared with parental (AR+) cells, 48 hours. The format is cell-based, human. As for the experimental part:
as §1

Data set [5] deals with primary intact (DHT+) Pten^L/L cells. The data set can be described thus: IncuCyte in vitro proliferation assay, primary intact Pten^L/L cells. It is filed as cell-based, mouse. Particulars: 48 hours, same drug concentrations as in castrate cells. How it is done:
as §1

Data set [6] relates to 4ebp1 transcript expression. In words: 4ebp1 transcript expression in castrate Pten^L/L cells under enzalutamide. The format is cell-based, mouse. Particulars: further inhibition of AR. As for the experimental part:
Total RNA was isolated using RNeasy Plus Mini Kit (Qiagen) and reverse-transcribed with iScript Reverse Transcription Supermix (Bio-Rad). cDNA was diluted 1:1 with water. Quantitative PCR was performed with 1 μl cDNA using SsoAdvanced SYBR Supermix (Bio-Rad) with primer sets specific for Ar, 4ebp1, Cacul1, Denr, Klf5, Rps15, Gapdh, luciferase, RPS19, and actin (Table 3). Normalized mRNA expression was calculated using the comparative Ct method.

For data set [7], the system named is AR-null non-neuroendocrine LuCaP 173.2 PDX. In words: LuCaP 173.2 PDX preclinical trial. Particulars: 15 mg/kg intraperitoneal. It is filed as in vivo. How it is done:
(§5) 1×10^6 AR+ parental and AR− APIPC cells were resuspended 1:1 in Matrigel (Corning): RPMI-1640 (Gibco) and subcutaneously injected into the flanks of intact or castrate NOD-scid IL2Rgamma^null mice respectively. 1×1×1 mm^3 of LuCaP 173.2 tumor chunks were implanted into the flank of castrate mice. Tumor volume was calculated using the formula (L(W^2))/2, where L is the length of the tumor and W the width. When tumors reached 100 mm^3, animals were randomized to receive intraperitoneal injections of 15 mg/kg 4E1RCat (Selleckchem) or vehicle (5.2% PEG400 and 5.2% TWEEN80 in ddH2O), Monday-Friday.

Data set [8] relates to AR+ parental APIPC xenograft. In words: AR+ parental APIPC xenograft preclinical trial. The format is in vivo, intact NOD-scid IL2Rgamma^null mice. The following applies: uncastrated mice, 15 mg/kg intraperitoneal, versus vehicle. As for the experimental part: as §5
Another data set relates to AR− APIPC xenograft. In words: AR− APIPC xenograft preclinical trial. It is filed as in vivo. The following applies: 15 mg/kg intraperitoneal. As for the experimental part:
as §5

Data set [9] deals with de novo protein synthesis. The following applies: castrate Pten^L/L primary prostate cancer cells, 1 nM DHT add back, 48 hours.
Description: FIG. 9D is a representative western blot of puromycin incorporation with or without addition of 1 nM DHT for 48 hours, which increases AR signaling, in castrate Pten^L/L primary prostate cancer cells (representative of 4 biological replicates).
Cells were lysed for 30 min on ice in lysis buffer containing 150 mM NaCl, 50 mM Tris, 4 mM KCl, 1 mM MgCl2 1 mM Na3VO4 10% glycerol, 1% Nonidet P-40, supplemented with phosphatase and protease inhibitor cocktails (Roche). Lysates were cleared by centrifugation at 12000 rpm for 15 min at 4° C. Supernatants were removed and assayed for protein concentration using the Protein Assay Dye Reagent (Bio-Rad). Equal amounts of proteins were subjected to SDS-PAGE and transferred to PVDF membranes (Bio-Rad). Membranes were blocked with 5% non-fat milk in PBS-Tween and were subsequently incubated with the following antibodies at 4° C. overnight: AR (N-terminus, Abcam), AR (C-terminus, SCBT), AR (GeneTex), p-AKT (S473, CST), p-AKT (T308, CST), eIF4E (BD Biosciences), eIF4A (CST), eIF4G (CST), 4EBP1 (CST), p-4EBP1 (Thr37/46, CST), KLF5 (Abcam), DENR (GeneTex), CACUL1 (GeneTex) FLAG (Sigma), RPS15 (Abcam), PTEN (CST), synaptophysin (CST), chromogranin A (Abcam). […] Signal detection was performed using the ChemiDoc Touch Imaging System (Bio-Rad) or standard film, and quantified using ImageJ.
The mark [10] stands for this setting: castrated mice, Monday-Friday, versus vehicle.

Chain of eIF4E-eIF4G interaction (eIF4F complex) (Homo sapiens, UniProt P06730) (P06730 whole entry, one chain of several): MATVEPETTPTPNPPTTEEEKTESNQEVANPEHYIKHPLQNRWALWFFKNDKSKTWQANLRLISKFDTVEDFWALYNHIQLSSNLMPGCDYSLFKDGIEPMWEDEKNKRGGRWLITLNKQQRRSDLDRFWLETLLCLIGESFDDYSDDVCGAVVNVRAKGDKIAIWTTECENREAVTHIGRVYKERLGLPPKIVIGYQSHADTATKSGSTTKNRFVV
T1 sequence (P63073 whole entry, one chain of several): as the sequence (P06730 whole entry, one chain of several) above, with P12T, T16P, T17A, E174D counted along it

Take `O=C(O)c1cc(-c2ccc(/C=C3/SC(=S)N(Cc4ccccc4)C3=O)o2)ccc1Cl` [4E2RCat, 5-[5-[(E)-(3-Benzyl-4-oxo-2-sulfanylidene-1,3-thiazolidin-5-ylidene)methyl]furan-2-yl]-2-chlorobenzoic acid]: the “effect on cell proliferation” value in [1] was “profound changes”; in data set [5], “negligible effects”. Further, the “eIF4F complex formation (proximity ligation assay)” value in data set [2] and in [3] was “disrupt eIF4F complex formation” throughout. For the same compound, the “sensitivity of proliferation to eIF4E-eIF4G disruption” value in [4] is recorded as “more sensitive”.
For the compound `CNC(=O)c1ccc(N2C(=S)N(c3ccc(C#N)c(C(F)(F)F)c3)C(=O)C2(C)C)cc1F` [enzalutamide], the 4ebp1 transcript expression result in data set [6] was “does not impact”.
On to `O=C(O)c1ccc(N2C(=O)/C(=C/c3ccc(-c4ccc([N+](=O)[O-])cc4)o3)C=C2c2ccccc2)cc1` [4E1RCat, 4-[(3E)-3-[[5-(4-nitrophenyl)furan-2-yl]methylidene]-2-oxo-5-phenylpyrrol-1-yl]benzoic acid], for which the “toxicity to mice (body weight)” value (in data set [7] (castrated NSG mice); in the data set with AR− APIPC xenograft (castrated NSG mice)) was “without overt toxicity” in each case. Further, the survival entry (in [7] (setting [10]); with AR− APIPC xenograft (setting [10])) was “improvement” each time. The tumor growth result (in data set [7] (setting [10]); in the data set with AR− APIPC xenograft (setting [10])) was “marked decrease” throughout. Further, in [8], the “tumor growth (sensitivity of the model)” value is “completely insensitive”.
On to `C[C@]12CCC(=O)C[C@@H]1CC[C@@H]1[C@@H]2CC[C@]2(C)[C@@H](O)CC[C@@H]12` [DHT, dihydrotestosterone], for which the “de novo protein synthesis (puromycin incorporation)” value in data set [9] was “decreases”.
Take `O=C(O)C(Cc1ccccc1[N+](=O)[O-])=NNc1nc(-c2ccc(Cl)c(Cl)c2)cs1` [4EGI-1, α-[2-[4-(3,4-Dichlorophenyl)-2-thiazolyl]-hydrazinylidene]-2-nitrobenzene-propanoic acid]: the results for the “effect on cell proliferation” value in data set [1] and in data set [5] were “profound changes” and “negligible effects”, respectively. The “sensitivity of proliferation to eIF4E-eIF4G disruption” value in data set [4] is “more sensitive”.
